Results: US20220401483A1, “COMBINATION OF A T CELL THERAPY AND (S)-3-[4-(4-MORPHOLIN-4-YLMETHYL-BENZYLOXY)-L-OXO-L,3-DIHYDRO-ISOINDOL-2-YL]-PIPERIDINE-2,6-DIONE” (Juno Therapeutics, Inc., priority 2019, published 2022)

What was measured:
Format in all cases: cell-based, human
[1] = system: Granta-519 tumor spheroids; test: Spheroid tumor growth assay after chronic stimulation with concurrent treatment
Procedure: CAR T cells that had been stimulated for 6 days with anti-ID concurrently in the presence of Compound A (0.001 μM or 0.01 μM) were co-cultured with by incubation with Granta-519 tumor spheroids, and CAR T cell cytolytic function and cytokine function were assessed at various time points. For comparison, cytolytic activity was also assessed for cells that had been similarly chronically stimulated with anti-ID in the presence of 1 μM or 0.1 μM Compound B. Averaged measurement of tumor spheroid size at various times following co-culture with CAR-T cells was monitored.
(§1) Cytokines (IFNγ, IL-2 and TNFalpha) were measured from supernatant of the chronically stimulated CAR T cells above that had been co-cultured for 5 days with CD19 tumor spheroids. The log 2 fold change compared to control cells (chronically stimulated cells that had not been concurrently treated with Compound A immunomodulatory compound) is shown in FIG. 3F.

[2] = system: K562.CD19, Raji, Granta-519 cells; test: Cytolytic activity of CAR T cells after chronic stimulation with concurrent treatment, rechallenge with CD19+ tumor cells; details: 0.001 μM or 0.01 μM, E:T 1:1, vs control
Procedure: Anti-CD19 CAR-expressing T cells were produced substantially as described in Example 1. To subject cells to chronic stimulation conditions, the CAR+ T cells were stimulated with 30 μg/mL plate-bound anti-idiotypic (anti-ID) antibody (see e.g. WO2018/023100) for 6 days in the presence of (S)-3-[4-(4-morpholin-4-ylmethyl-benzyloxy)-1-oxo-1,3-dihydro-isoindol-2-yl]-piperidine-2,6-dione (Compound A) or a vehicle control, to induce chronic stimulation. After the 6-day culture period, the anti-CD19 CAR-expressing T cells were removed from culture and incubated with K562 cells transduced with CD19 (K562.CD19), Raji tumor cells, and Granta-519 tumor cells (to rechallenge the CAR-T cells) at an effector to target ratio of 2.5:1 unless otherwise indicated, in the presence of Compound A, at concentrations ranging from 0.001 μM to 10 μM, or vehicle control for up to 10 days. […] Cells were assessed at various times for cytolytic function, CAR T cell number and cytokine production.
CAR T cells that had been stimulated for 6 days with anti-ID concurrently in the presence of Compound A (0.001 μM or 0.01 μM) were washed free of compound and co-cultured with CD19+ tumor cells at an effector to target (E:T) ratio of 1:1 in the absence of Compound A. The assessed CD19+ tumor cells included K562 cells transduced with CD19 (K562.CD19), Raji cells, or Granta-519 cells.

[3] = system: A549.CD19 tumor spheroids; test: A549.CD19 tumor spheroid model, rescue treatment of chronically stimulated CAR T cells
Procedure: An A549.CD19 tumor spheroid model was further used to elucidate the T cell modulatory activity of the compounds. A549.CD19 tumor spheroid growth is insensitive to monotherapy treatment with the immunomodulatory compounds. CAR T cells that had been stimulated for 6 days with anti-ID were co-cultured by incubation with A549.CD19 tumor spheroids, in the presence of presence of Compound A (0.001 μM, 0.01 μM, or 0.1 μM). Averaged measurement of tumor spheroid size at Day 9 following co-culture with CAR-T cells was assessed. […] The number of CAR T cells in co-cultures with tumor spheroids, measured at day 5, were increased with treatment with Compound A (FIG. 5B).
as §1, with “with” for “with Compound A”, “5E.” for “3F.”

anti-CD19 CAR T cells [4] = test: RNA-seq gene expression of anti-CD19 CAR T cells sorted from tumor spheroids
Procedure: Gene expression analysis of anti-CD19 CAR T cells sorted from tumor spheroids 5 days after co-culture as described above was analyzed by RNA sequencing (RNA-seq) on the complementary DNA (cDNA) samples prepared from the RNA isolated from the long-term stimulated CAR-expressing T cells or on CAR-expressing T cells that had not undergone the long-term stimulation. Libraries for RNA-seq were sequenced on Illumina NextSeq system. Reads were mapped to the human reference genome GRCh38, and gene expression levels were quantified in Array Studio. Differential expression (DE, for RNA-seq) analysis was performed using DESeq2.
The dots on the top left quadrant represent genes induced by chronic stimulation and the dots on the lower right quadrant represent genes reversed by Compound A.
Pathway enrichment analysis of the differentially expressed genes were performed using clusterProfiler.
Gene expression analysis by RNA-seq was carried out substantially as described in Example 3.

anti-CD19 CAR T cells [5] = test: Intracellular cytokine staining of acutely stimulated anti-CD19 CAR T cells; details: 3 days, 30 μg/mL agonistic anti-CAR antibody
Procedure: Effector and proliferative activity of anti-CD19 CAR T cells were assessed following incubation in the presence of absence of Compound A. Anti-CD19 CAR+ T cell compositions were generated as described in Example 1.
The anti-CD19 CAR T cells were stimulated with agonistic antibody against the CAR (30 μg/mL; WO2018/023100) while being treated with vehicle control (ctrl) or Compound A. Intracellular cytokines were measured using intracellular cytokine staining (ICS) after 3 days of treatment. FIG. 7A show a heatmap of cytokine expression as depicted based on log 2-fold change in mean fluorescence intensity (MFI) of cytokines relative to vehicle control in culture.

Q: What does the source list for O=C1CC[C@H](N2Cc3c(OCc4ccc(CN5CCOCC5)cc4)cccc3C2=O)C(=O)N1 [Compound A, (S)-3-[4-(4-morpholin-4-ylmethyl-benzyloxy)-1-oxo-1,3-dihydro-isoindol-2-yl]-piperidine-2,6-dione]?
A: cytolytic function, average tumor volume after 9 days [1]: significantly increased cytolytic function; cytolytic function, Granta-519 spheroid growth ([1]; 0.001 μM or 0.01 μM): improved cytolytic function; IFNγ in co-culture supernatant ([1]; 5 days co-culture with spheroids): statistically significant increase; improvement in cytolytic function compared with Compound B ([1]; Compound B 1 μM or 0.1 μM): greater; cytolytic activity (tumor cell number over time) [2]: improved; number of CAR T cells in co-cultures with tumor spheroids ([3]; day 5, 0.01 μM or 0.1 μM): increased; CAR T cell cytolytic function, A549.CD19 spheroid growth ([3]; rescue, 0.001, 0.01 or 0.1 μM, Day 9): improved; IFNγ in co-culture supernatant ([3]; rescue, 5 days co-culture with spheroids): statistically significant increase; expression changes in genes of T cell function pathways after chronic stimulation (anti-CD19 CAR T cells [4]; concurrent treatment): can be reversed; expression changes in genes of T cell function pathways after chronic stimulation (anti-CD19 CAR T cells [4]; rescue treatment): can also be reversed; effector cytokine production (ICS, MFI vs vehicle) (anti-CD19 CAR T cells [5]): potentiates
